From patent publication US20210198613A1, “MICROELECTRODE ARRAY AND USES THEREOF” (AXOSIM, INC., priority 2018, published 2021)
Like-named read-outs stand apart in the source and are kept apart here.

What was measured:
[1] = test system: neuronal cell death in vitro; conditions: cited from earlier work
[2] = test system: embryonic dorsal root ganglion (DRG) explants; assay: Nerve-On-A-Chip compound action potential (CAP) electrophysiology; assay type: cell-based, rat; conditions: 40 μM, 48-hr application
[3] = test system: embryonic dorsal root ganglion (DRG) explants; conditions: 40 μM, 48-hr application
[4] = test system: embryonic dorsal root ganglion (DRG) explants; conditions: cited from earlier work

## [CH3][Hg][Cl] [Methylmercury]
[1]; literature value, used as acute 48-hr dose of the planned pilot study
  In Vitro Neurotoxic dose: 10 mM

## C=C[C@@]1(C)CC(=O)[C@]2(O)[C@@]3(C)[C@@H](O)CCC(C)(C)[C@@H]3[C@H](O)[C@H](OC(C)=O)[C@@]2(C)O1 [forskolin]
[2]
  reduction in CAP amplitude: ~50%
  reduction in conduction velocity: ~50%
[3]
  dysmyelination by histology: strong evidence of dysmyelination
[3]; histology, data not shown
  increase in G-ratio (thinning of myelin sheath): 50%
  reduction in % myelinated axons: 70%

## CCCCCC [n-hexane]
[1]
  In Vitro Neurotoxic dose: 765 mM

## NC1=N[C@H](O)[C@H]2[C@H]3O[C@]4(O)O[C@@H]([C@@H](O)[C@@]2(N1)[C@@H]4O)[C@]3(O)CO [tetrodotoxin]
[4]
  effect on CAP population responses: reversibly abolished
